These are literature values, as cited in article PMC4753123 (Archives of biochemistry and biophysics, 2015).

The pKd is −log10 of the Kd, conventionally taken in molar units.

pKd: −log10 of the molar value.

This data set concerns the target T1, Mtm1p (Saccharomyces cerevisiae, UniProt P53320).
T1 sequence (P53320 1-366): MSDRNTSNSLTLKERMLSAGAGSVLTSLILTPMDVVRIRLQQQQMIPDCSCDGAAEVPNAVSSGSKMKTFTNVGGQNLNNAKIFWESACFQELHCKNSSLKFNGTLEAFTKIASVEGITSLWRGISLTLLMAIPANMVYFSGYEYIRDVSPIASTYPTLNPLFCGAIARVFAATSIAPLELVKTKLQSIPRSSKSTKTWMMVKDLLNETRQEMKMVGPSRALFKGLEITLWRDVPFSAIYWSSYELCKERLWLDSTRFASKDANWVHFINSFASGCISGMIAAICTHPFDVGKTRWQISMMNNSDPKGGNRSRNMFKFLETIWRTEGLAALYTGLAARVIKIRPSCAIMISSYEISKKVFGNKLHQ
Description: fluorescence titration. The data set is classed as binding. To be noted: purified recombinant protein.

`Cc1ncc(COP(=O)(O)O)c(C=O)c1O` [PLP]: the negative-log Kd (pKd) is 6.22.
